# Measured values published in patent US20230011869A1 (Hoffmann-La Roche Inc., priority 2018, published 2023).
# Counter-ions that a name gives are not always drawn.
# System: Acinetobacter baumannii ATCC17978
# Experiment: Antimicrobial susceptibility testing: 90% growth inhibitory concentration (IC90) determination, Iso-Sensitest broth
# Type: cell-based
# Settings: 90% growth inhibitory concentration, Acinetobacter baumannii ATCC17978, Iso-Sensitest broth, OD 600 nm over 16 h; read-out: ATCC17978 IC90
# Procedure, shortened: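 A. baumannii ATCC17978 grown in Iso-Sensitest broth across 10 compound concentrations at 35±2 °C.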
row,IC90 [µM],Structure (SMILES)
1,2,"COc1ccc(-c2cnc3c(Nc4ccc(C(=O)N5CCCC(CN(C)C)C5)c(C)c4)nccn23)cc1F (stereo not shown) [Example 252, [3-[(dimethylamino)methyl]pi-peridin-1-yl]-[4-[[3-(3-fluoro-4-methoxyphenyl)imidazo[1,2-a]pyrazin-8-yl]amino]-2-methylphenyl]methanone]"
2,6.7,"COc1ccc(-c2cnc3c(Nc4ccc(C(=O)N5CCCCC5CN(C)C)c(C)c4)nccn23)cc1F (stereo not shown) [Example 253, [2-[(dimethylamino)methyl]pi-peridin-1-yl]-[4-[[3-(3-fluoro-4-methoxyphenyl)imidazo[1,2-a]pyrazin-8-yl]amino]-2-methylphenyl]methanone; for-mic acid]"
3,2.1,"COc1ccc(-c2cnc3c(Nc4ccc(C(=O)N5CCNC(CN(C)C)C5)c(C)c4)nccn23)cc1F (stereo not shown) [Example 254, [3-[(dimethylamino)methyl]pi-perazin-1-yl]-[4-[[3-(3-fluoro-4-methoxyphenyl)imidazo[1,2-a]pyrazin-8-yl]amino]-2-methylphenyl]methanone; hy-drochloride]"
4,0.73,"Cc1cc(Nc2nccn3c(-c4ccc(OC(F)F)cc4)cnc23)ccc1C(=O)N1CCN(C(=O)C(O)CN)CC1 (stereo not shown) [Example 255, 3-amino-1-[4-[4-[[3-[4-(difluoromethoxy)phenyl]imi-dazo[1,2-a]pyrazin-8-yl]amino]-2-methylbenzoyl]piperazin-1-yl]-2-hydroxypropan-2-one; 2,2,2-trifluoroacetc acid]"
5,0.76,"COc1ccc(-c2cnc3c(Nc4ccc(C(=O)N5CCN(Cc6cnc[nH]6)CC5)c(C)c4)nccn23)cc1F [Example 256, [4-[[3-(3-fluoro-4-methoxyphenyl)imidazo[1,2-a]pyrazin-8-yl]amino]-2-methylphenyl]-[4-(1H-imidazol-5-ylmethyl)piperazin-1-yl]methanone]"
6,0.85,"COc1ccc(-c2cnc3c(Nc4ccc(C(=O)N5CCC(C(=O)NCC(O)C(O)CO)CC5)c(C)c4)nccn23)cc1F (stereo not shown) [Example 257, 1-[4-[[3-(3-fluoro-4-methoxyphenyl)imidazo[1,2-a]pyrazin-8-yl]amino]-2-methylbenzoyl]-N-(2,3,4-trihydroxybutyl)piperidine-4-carboxamide]"
7,1.1,"COc1ccc(-c2cnc3c(Nc4ccc(C(=O)N5CCC(C(=O)N6CCNC(C(=O)O)C6)CC5)c(C)c4)nccn23)c(F)c1F (stereo not shown) [Example 266, 4-[1-[4-[[3-(2,3-difluoro-4-methoxyphenyl)imidazo[1,2-a]pyrazin-8-yl]amino]-2-methylbenzoyl]piperidine-4-carbonyl]piperazine-2-carboxylic acid]"
8,2.4,"COc1ccc(-c2cnc3c(Nc4ccc(C(=O)N5CCC(C(=O)N6CCN(C)C(C(=O)O)C6)CC5)c(C)c4)nccn23)c(F)c1F (stereo not shown) [Example 273, 4-[1-[4-[[3-(2,3-difluoro-4-methoxyphenyl)imidazo[1,2-a]pyrazin-8-yl]amino]-2-methylbenzoyl]piperidine-4-carbonyl]-1-methylpiperazine-2-carboxylic acid]"

row,Structure (SMILES),IC90 [µM]
1,"Cc1cc(Nc2nccn3c(-c4ccc(OC(F)F)cc4)cnc23)ccc1C(=O)N1CCN(C(=O)CC[C@@H](N)C(=O)O)CC1 [Example 271, (2R)-2-amino-5-[4-[4-[[3-[4-(difluoromethoxy)phenyl]imi-dazo[1,2-a]pyrazin-8-yl]amino]-2-methylbenzoyl]piperazin-1-yl]-5-oxopentanoic acid; formic acid]",2.1

# Same assay, conditions: Acinetobacter baumannii, ATCC17978, 16 h, read-out: ATCC17978 IC90, 90% growth inhibitory concentration, Acinetobacter baumannii ATCC17978, Iso-Sensitest broth, OD 600 nm over 16 h
row,Structure (SMILES),IC90 [µM]
1,"Cc1cc(Nc2nccn3c(-c4ccc(OCC#CCN)c(F)c4)cnc23)ccc1C(=O)N1CCC(CN)CC1 [Example 247, [4-[[3-[4-(4-aminobut-2-ynoxy)-3-fluoro-phenyl]imidazo[1,2-a]pyrazin-8-yl]amino]-2-methyl-phenyl]-[4-(aminomethyl)-1-piperidyl]methanone; formic acid]",0.87
2,"Cc1cc(Nc2nccn3c(-c4ccc(OC(F)F)cc4)cnc23)ccc1C(=O)N1CCN(C(=O)[C@H]2C[C@@H](N)C2)CC1 [Example 249, [4-(3-aminocyclobutanecarbonyl)piperazin-1-yl]-[4-[[3-[4-(difluoromethoxy)phenyl]imidazo[1,2-a]pyrazin-8-yl]amino]-2-methyl-phenyl]methanone hydrochloride]",0.18
3,"Cc1cc(Nc2nccn3c(-c4ccc(OC(F)F)cc4)cnc23)ccc1C(=O)N1CCN(C(=O)[C@H]2C[C@H](N)C2)CC1 [Example 250, [4-(3-aminocyclobutanecarbonyl)piperazin-1-yl]-[4-[[3-[4-(difluoromethoxy)phenyl]imidazo[1,2-a]pyrazin-8-yl]amino]-2-methyl-phenyl]methanone hydrochloride]",0.16
4,"Cc1cc(Nc2nccn3c(-c4ccc(OC(F)F)cc4)cnc23)ccc1C(=O)N1CCN(C(=O)[C@H](N)C(C)C)CC1 [Example 258, hydrochloride]",0.89
5,"Cc1cc(Nc2nccn3c(-c4ccc(OC(F)F)cc4)cnc23)ccc1C(=O)N1CCN(C(=O)[C@H](N)C2CC2)CC1 [Example 260, (2R)-2-amino-2-cyclopropyl-1-[4-[4-[[3-[4-(difluoromethoxy)phenyl]imi-dazo[1,2-a]pyrazin-8-yl]amino]-2-methylbenzoyl]piperazin-1-yl]ethanone; hydrochloride]",1
6,"CC[C@@H](N)C(=O)N1CCN(C(=O)c2ccc(Nc3nccn4c(-c5ccc(OC(F)F)cc5)cnc34)cc2C)CC1 [Example 261, (2R)-2-amino-1-[4-[4-[[3-[4-(difluoromethoxy)phenyl]imi-dazo[1,2-a]pyrazin-8-yl]amino]-2-methylbenzoyl]piperazin-1-yl]butan-1-one; hydrochloride]",1
7,"Cc1cc(Nc2nccn3c(-c4ccc(OC(F)F)cc4)cnc23)ccc1C(=O)N1CCN(C(=O)[C@@H](N)CCCNC(N)=O)CC1 [Example 262, [(4S)-4-amino-5-[4-[4-[[3-[4-(difluoromethoxy)phenyl]imi-dazo[1,2-a]pyrazin-8-yl]amino]-2-methylbenzoyl]piperazin-1-yl]-5-oxopentyl]urea]",1
8,"Cc1cc(Nc2nccn3c(-c4ccc(OC(F)F)cc4)cnc23)ccc1C(=O)N1CCC(C(=O)N[C@@H]2CCNC2)CC1 [Example 263, 1-[4-[[3-[4-(difluoromethoxy)phenyl]imi-dazo[1,2-a]pyrazin-8-yl]amino]-2-methylbenzoyl]-N-[(3R)-pyrrolidin-3-yl]piperidine-4-carboxamide; hydrochloride]",1.1
9,"COc1ccc(-c2cnc3c(Nc4ccc(C(=O)N5CCC(C(=O)N6CCNC(C(=O)O)C6)CC5)c(C)c4)nccn23)cc1F (stereo not shown) [Example 264, 4-[1-[4-[[3-(3-fluoro-4-methoxyphenyl)imidazo[1,2-a]pyrazin-8-yl]amino]-2-methylbenzoyl]piperidine-4-carbonyl]piperazine-2-carboxylic acid; formic acid]",1.1
10,"Cc1cc(Nc2nccn3c(-c4ccc(OC(F)F)cc4)cnc23)ccc1C(=O)N1CCN(C(=O)[C@H]2CC[C@H](C(=O)O)CC2)CC1 [Example 265, 4-[4-[4-[[3-[4-(difluoromethoxy)phenyl]imi-dazo[1,2-a]pyrazin-8-yl]amino]-2-methylbenzoyl]piperazine-1-carbonyl]cyclohexane-1-carboxylic acid]",1.1
11,"Cc1cc(Nc2nccn3c(-c4ccc(OC(F)F)cc4)cnc23)ccc1C(=O)N1CCN(C(=O)C2(C)CNC2)CC1 [Example 267, [4-[[3-[4-(difluoromethoxy)phenyl]imi-dazo[1,2-a]pyrazin-8-yl]amino]-2-methylphenyl]-[4-(3-methylazetidine-3-carbonyl)piperazin-1-yl]methanone]",1.3
12,"Cc1cc(Nc2nccn3c(-c4ccc(OC(F)F)cc4)cnc23)ccc1C(=O)N1CCC(C(=O)N(C)C[C@H](O)[C@@H](O)[C@@H](O)[C@H](O)CO)CC1 [Example 268, 1-[4-[[3-[4-(difluoromethoxy)phenyl]imi-dazo[1,2-a]pyrazin-8-yl]amino]-2-methylbenzoyl]-N-methyl-N-[(2S,3R,4S,5R)-2,3,4,5,6-pentahydroxyhexyl]piperidine-4-carboxamide]",1.5
13,"Cc1cc(Nc2nccn3c(-c4ccc(OC(F)F)cc4)cnc23)ccc1C(=O)N1CCN(C(=O)c2cc(C(=O)O)ncn2)CC1 [Example 269, 6-[4-[4-[[3-[4-(difluoromethoxy)phenyl]imi-dazo[1,2-a]pyrazin-8-yl]amino]-2-methylbenzoyl]piperazine-1-carbonyl]pyrimidine-4-carboxylic acid]",2
14,"Cc1cc(Nc2nccn3c(-c4ccc(OC(F)F)cc4)cnc23)ccc1C(=O)N1CCC(C(=O)N2C[C@H](O)[C@@H](O)[C@@H](O)[C@H]2CO)CC1 [Example 270, [4-[[3-[4-(difluoromethoxy)phenyl]imi-dazo[1,2-a]pyrazin-8-yl]amino]-2-methylphenyl]-[4-[(2R,3S,4R,5S)-3,4,5-trihydroxy-2-(hydroxymethyl)piperidine-1-carbonyl]piperidin-1-yl]methanone]",2
15,"Cc1cc(Nc2nccn3c(-c4ccc(OC(F)F)cc4)cnc23)ccc1C(=O)N1CCN(C(=O)[C@@H](N)CCC(=O)O)CC1 [Example 272, (4S)-4-amino-5-[4-[4-[[3-[4-(difluoromethoxy)phenyl]imi-dazo[1,2-a]pyrazin-8-yl]amino]-2-methylbenzoyl]piperazin-1-yl]-5-oxopentanoic acid; hydrochloride]",2.2

# Same assay, conditions: read-out: ATCC17978 IC90; 90% growth inhibitory concentration, Acinetobacter baumannii ATCC17978, Iso-Sensitest broth, OD 600 nm over 16 h
row,Structure (SMILES),IC90 [µM]
1,"Cc1cc(Nc2nccn3c(-c4ccc(OC(F)F)cc4)cnc23)ccc1C(=O)N1CCN(C(=O)CN)CC1 [Example 259, 2-amino-1-[4-[4-[[3-[4-(difluoromethoxy)phenyl]imi-dazo[1,2-a]pryazin-8-yl]amino]-2-methylbenzoyl]piperazin-1-yl]ethanone; formic acid]",0.89
